Patent US9212168B2 (priority 2011, dated 2015)

Legend:
[1] = test system: HCV genotype 1a replicon; assay: HCV genotype 1a replicon assay (NS3 protease activity readout); format: cell-based, hepatitis C virus; details: for Genotype 1a: HCV genotype 1a replicon; for EC50: Hepatitis C virus, read-out: Genotype 1a, HCV genotype 1a replicon
Procedure, shortened: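 Genotype 1a subgenomic replicon cells (APC89, Huh7.5) were treated with compound dose-responses in G418-free medium, 0.5% DMSO final, for 48 or 72 hours at 37° C. Lysate NS3/4a protease activity measured with 15 μM FRET substrate, 20 min at 37° C (ex 340/em 509 nm); EC50 by 4-parameter fit.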

[2] = biological target: HCV genotype 1b replicon; assay: HCV genotype 1b replicon assay (Renilla luciferase readout); format: cell-based, hepatitis C virus; details: for Genotype 1b: HCV genotype 1b replicon; for EC50: Hepatitis C virus, read-out: Genotype 1b
Procedure, shortened: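 Huh7-derived APC144 subgenomic replicon cells carrying Renilla luciferase–NS3-NS5B, seeded 10,000/well without G418, then treated with compound dose-responses for 48 h at 37 °C (0.5% DMSO final). Luciferase signal fitted by 4-parameter model to EC50, reported as pEC50.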

Row | Compound | Genotype 1a [1] | Genotype 1b [2] | EC50 [1] | EC50 [2]
1 | COC(=O)N[C@H](C(=O)N1C[C@@H](C)C[C@H]1c1nc(-c2ccc(-c3cc(F)c(NC(=O)c4ccc(N5C[C@H](C)N(C(=O)C6CC6)C[C@H]5C)nc4)cc3OC(F)(F)F)cc2)c[nH]1)C(C)C [Example 1-15] | D (D represents pEC50>10 (EC50<0.1 nM)) | D (D represents pEC50>10 (EC50<0.1 nM)) | – | –
2 | COC(=O)N[C@H](C(=O)N1C[C@@H](C)C[C@H]1c1nc(-c2ccc(-c3ccc(C(=O)Nc4ccc(N5C[C@H](C)N(C(=O)C6CC6)C[C@H]5C)nc4)cc3OC(F)(F)F)cc2)c[nH]1)C(C)C [Example 4-16] | C (C represents pEC50 between and 9 and about 10, (EC50 between 1 nM and 0.1 nM)) | D (D represents pEC50>10 (EC50<0.1 nM)) | – | –
3 | COC(=O)N[C@H](C(=O)N1C[C@@H](C)C[C@H]1c1nc(-c2ccc(-c3ccc(C(=O)Nc4ccc(N5C[C@H](C)N(C(=O)[C@H]6CCCN6C(=O)C6CC6)C[C@H]5C)nc4)cc3OC(F)(F)F)cc2)c[nH]1)C(C)C [Example 4-18] | D (D represents pEC50>10 (EC50<0.1 nM)) | D (D represents pEC50>10 (EC50<0.1 nM)) | – | –
4 | COC(=O)NC(C(=O)N1CC(C)CC1c1nc(-c2ccc(-c3ccc(NC(=O)c4ccc(N5CCN(C(=O)C(C)(C)CO)CC5C)nc4)cc3OC(F)(F)F)cc2)c[nH]1)C(C)C (centres unmarked) [Example 13-29] | D (D represents pEC50>10 (EC50<0.1 nM)) | D (D represents pEC50>10 (EC50<0.1 nM)) | – | –
5 | COC(=O)N[C@H](C(=O)N1C[C@@H](C)C[C@H]1c1nc(-c2ccc(-c3cc(Cl)c(NC(=O)c4ccc(N5CCN(C(=O)C(C)(C)C)[C@@H](C)C5)nc4)cc3OC(F)(F)F)cc2)c[nH]1)C1CCOCC1 [Example 20-5] | D (D represents pEC50>10 (EC50<0.1 nM)) | D (D represents pEC50>10 (EC50<0.1 nM)) | – | –
6 | COC(=O)N[C@H](C(=O)N1C[C@@H](C)C[C@H]1c1nc(-c2ccc(-c3cc(F)c(NC(=O)c4ccc(N5CCN(C(=O)C(C)(C)C)C[C@H]5C)nc4)cc3OC(F)(F)F)cc2)c[nH]1)C1CCOCC1 [Example 13-22] | – | – | < 0.1 nM | < 0.1 nM
7 | COC(=O)N[C@H](C(=O)N1C[C@@H](C)C[C@H]1c1nc(-c2ccc(-c3cc(Cl)c(NC(=O)c4ccc(N5CCN(C(=O)C(C)(C)C)C[C@@H]5C)nc4)cc3OC(F)(F)F)cc2)c[nH]1)C1CCOCC1 [Example 20-4] | D (D represents pEC50>10 (EC50<0.1 nM)) | D (D represents pEC50>10 (EC50<0.1 nM)) | – | –
8 | COC(=O)N[C@H](C(=O)N1C[C@@H](SC)C[C@H]1c1nc(-c2ccc(-c3cc(Cl)c(NC(=O)c4ccc(N5CCN(C(=O)[C@H]6CC6(C)C)C[C@H]5C)nc4)cc3OC(F)(F)F)cc2)c[nH]1)C(C)C [Example 5-4] | – | – | < 0.1 nM | < 0.1 nM
9 | COC(=O)N[C@H](C(=O)N1C[C@@H](C)C[C@H]1c1nc(-c2ccc(-c3ccc(C(=O)Nc4ccc(N5CCN(C(=O)[C@]6(C)CCCN6C(=O)[C@H](NC(=O)OC)C(C)C)C[C@H]5C)nc4)cc3OC(F)(F)F)cc2)c[nH]1)C(C)C [Example 4-7] | D (D represents pEC50>10 (EC50<0.1 nM)) | D (D represents pEC50>10 (EC50<0.1 nM)) | – | –
10 | COC(=O)N[C@H](C(=O)N1C[C@@H](OC)C[C@H]1c1nc(-c2ccc(-c3cc(Cl)c(NC(=O)c4ccc(N5CCN(C(=O)C(C)(C)C)C[C@H]5C)nc4)cc3OC(F)(F)F)cc2)c(CO)[nH]1)C(C)C [Example 5-18] | – | – | < 0.1 nM | < 0.1 nM
11 | COC(=O)N[C@H](C(=O)N1C[C@@H](C)C[C@H]1c1nc(-c2ccc(-c3cc(Cl)c(NC(=O)c4ccc(N5CCN(C(=O)c6ncc[nH]6)C[C@H]5C)nc4)cc3OC(F)(F)F)cc2)c[nH]1)C(C)C [Example 1-35] | D (D represents pEC50>10 (EC50<0.1 nM)) | D (D represents pEC50>10 (EC50<0.1 nM)) | – | –
12 | COC(=O)N[C@H](C(=O)N1C[C@@H](C(N)=O)C[C@H]1c1nc(-c2ccc(-c3cc(Cl)c(NC(=O)c4ccc(N5CCN(C(=O)C(C)(C)CO)C[C@H]5C)nc4)cc3OC(F)(F)F)cc2)c[nH]1)C(C)C [Example 15-3] | – | – | < 0.1 nM | < 0.1 nM
13 | COC(=O)N[C@H](C(=O)N1[C@@H](C)CC[C@H]1c1nc(-c2ccc(-c3cc(Cl)c(C(=O)Nc4ccc(N5CCN(C(=O)C(C)(C)C)C[C@H]5C)nc4)cc3OC(F)(F)F)cc2)c[nH]1)C1C[C@@H](C)O[C@@H](C)C1 (some centres unmarked) [Example 18-6] | D (D represents pEC50>10 (EC50<0.1 nM)) | D (D represents pEC50>10 (EC50<0.1 nM)) | – | –
14 | CNC(=O)N1C[C@@H](C)N(c2ccc(C(=O)Nc3cc(OC(F)(F)F)c(-c4ccc(-c5c[nH]c([C@@H]6C[C@H](C)CN6C(=O)[C@@H](c6ccccc6)N6CCCCC6)n5)cc4)cc3Cl)cn2)C[C@@H]1C [Example 5-9] | – | – | < 0.1 nM | < 0.1 nM
15 | COC(=O)NC(C(=O)N1CC(OC)CC1c1nc(-c2ccc(-c3cc(F)c(NC(=O)c4ccc(N5CCN(C(=O)C(C)(C)CO)CC5C)nc4)cc3OC(F)(F)F)cc2)c[nH]1)C(C)(C)O (centres unmarked) [Example 16-14] | D (D represents pEC50>10 (EC50<0.1 nM)) | D (D represents pEC50>10 (EC50<0.1 nM)) | – | –
16 | COC[C@H]1CN(c2ccc(C(=O)Nc3cc(OC(F)(F)F)c(-c4ccc(-c5c[nH]c([C@@H]6C[C@H](C)CN6C(=O)[C@@H](NC(=O)OC)C6CCOCC6)n5)cc4)cc3Cl)cn2)CCN1C(=O)C(C)(C)C [Example 20-7] | D (D represents pEC50>10 (EC50<0.1 nM)) | D (D represents pEC50>10 (EC50<0.1 nM)) | – | –
17 | COC(=O)N[C@H](C(=O)N1[C@@H](C)CC[C@H]1c1nc(-c2ccc(-c3cc(Cl)c(NC(=O)c4ccc(N5CCN(C(=O)C(C)(C)C)C[C@H]5C)nc4)cc3C(F)(F)F)cc2)c[nH]1)C(C)C [Example 17-2] | D (D represents pEC50>10 (EC50<0.1 nM)) | D (D represents pEC50>10 (EC50<0.1 nM)) | – | –
18 | COC(=O)N[C@H](C(=O)N1C[C@@H](C)C[C@H]1c1nc(-c2ccc(-c3ccc(C(=O)Nc4ccc(N5C[C@H](C)N(C(=O)C6CC6C)C[C@H]5C)nc4)cc3OC(F)(F)F)cc2)c[nH]1)C(C)C (some centres unmarked) [Example 4-17] | C (C represents pEC50 between and 9 and about 10, (EC50 between 1 nM and 0.1 nM)) | D (D represents pEC50>10 (EC50<0.1 nM)) | – | –
19 | COC(=O)N[C@H](C(=O)N1C[C@@H](C)C[C@H]1c1nc(-c2ccc(-c3cc(Cl)c(C(=O)Nc4ccc(N5CCN(C(=O)C(C)(C)C)C[C@H]5C)nc4)cc3OC(F)(F)F)cc2)c[nH]1)C(C)C [Example 4-46] | D (D represents pEC50>10 (EC50<0.1 nM)) | D (D represents pEC50>10 (EC50<0.1 nM)) | – | –
20 | COC(=O)N[C@H](C(=O)N1C[C@@H](C)C[C@H]1c1nc(-c2ccc(-c3cc(F)c(NC(=O)c4ccc(N5CCN(C(=O)C(C)(C)C)C[C@H]5C)nc4)cc3F)cc2)c[nH]1)C(C)C [Example 1-82] | C (C represents pEC50 between and 9 and about 10, (EC50 between 1 nM and 0.1 nM)) | D (D represents pEC50>10 (EC50<0.1 nM)) | – | –
21 | COC(=O)N[C@H](C(=O)N1C[C@@H](C)C[C@H]1c1nc(-c2ccc(-c3cc(Cl)c(NC(=O)c4ccc(N5C[C@H](C)N(C(=O)C6CC6)C[C@H]5C)nc4)cc3OC(F)(F)F)cc2)c[nH]1)C(C)C [Example 1-43] | D (D represents pEC50>10 (EC50<0.1 nM)) | D (D represents pEC50>10 (EC50<0.1 nM)) | – | –
22 | COC(=O)N[C@H](C(=O)N1C[C@@H](C)C[C@H]1c1nc(-c2ccc(-c3ccc(C(=O)Nc4ccc(N5CCN(C(=O)C(C)(C)C)C[C@H]5C)nc4)cc3OC(F)(F)F)cc2)c(F)[nH]1)C(C)C [Example 4-42] | D (D represents pEC50>10 (EC50<0.1 nM)) | D (D represents pEC50>10 (EC50<0.1 nM)) | – | –
23 | COC(=O)N[C@H](C(=O)N1C[C@@H](OC)C[C@H]1c1nc(-c2ccc(-c3ccc(NC(=O)c4ccc(N5CCN(C(=O)C(C)(C)C)C[C@H]5C)nc4)cc3OC(F)(F)F)cc2)c[nH]1)C1CCOCC1 [Example 28-2] | D (D represents pEC50>10 (EC50<0.1 nM)) | D (D represents pEC50>10 (EC50<0.1 nM)) | – | –
24 | COC(=O)NC(CC1CCOCC1)C(=O)N1C[C@@H](C)C[C@H]1c1nc(-c2ccc(-c3cc(Cl)c(NC(=O)c4ccc(N5CCN(C(=O)C(C)(C)C)C[C@H]5C)nc4)cc3OC(F)(F)F)cc2)c[nH]1 (some centres unmarked) [Example 13-34] | – | – | < 0.1 nM | < 0.1 nM
25 | COCC(C)(C)C(=O)N1CCN(c2ccc(C(=O)Nc3cc(OC(F)(F)F)c(-c4ccc(-c5c[nH]c([C@@H]6C[C@H](C)CN6C(=O)[C@@H](NC(=O)OC)C(C)C)n5)cc4)cc3Cl)cn2)[C@H](C)C1 [Example 12-32] | – | – | < 0.1 nM | < 0.1 nM
26 | COC(=O)N[C@H](C(=O)N1C[C@@H](O)C[C@H]1c1nc(-c2ccc(-c3ccc(NC(=O)c4ccc(N5CCN(C(=O)[C@H]6CC6(C)C)C[C@H]5C)nc4)cc3)cc2)c[nH]1)C(C)C [Example 26-4] | C (C represents pEC50 between and 9 and about 10, (EC50 between 1 nM and 0.1 nM)) | D (D represents pEC50>10 (EC50<0.1 nM)) | – | –
27 | COCC1(C(=O)N2CCN(c3ccc(C(=O)Nc4cc(OC(F)(F)F)c(-c5ccc(-c6c[nH]c([C@@H]7C[C@H](OC)CN7C(=O)[C@@H](NC(=O)OC)C7CCOCC7)n6)cc5)cc4Cl)cn3)[C@H](C)C2)CC1 [Example 28-21] | D (D represents pEC50>10 (EC50<0.1 nM)) | D (D represents pEC50>10 (EC50<0.1 nM)) | – | –
28 | COC(=O)N[C@H](C(=O)N1C[C@@H](C)C[C@H]1c1nc(-c2ccc(-c3ccc(C(=O)Nc4ccc(N5C[C@H](C)N(C(=O)C6CC6)C[C@H]5C)nc4)cc3OC(F)(F)F)cc2)c(Cl)[nH]1)C(C)C [Example 4-11] | D (D represents pEC50>10 (EC50<0.1 nM)) | D (D represents pEC50>10 (EC50<0.1 nM)) | – | –
